{"source": "patent US8637252B2", "about": "“Methods and compositions for determining altered susceptibility of HIV-1 to anti-HIV drugs” (Monogram Biosciences, Inc., priority 2011, dated 2014)", "key": {"[1]": {"test_system": "HIV-1 patient-derived test vectors with site-directed reverse transcriptase mutations", "assay": "phenotypic drug resistance test, site-directed reverse transcriptase mutants in patient backgrounds", "format": "cell-based", "method": "In addition, using conventional technique, the T369I mutation was introduced into a resistance test vector comprising PR-RT segment derived from patient sample 62, which comprises mutations A62V, Q102K, K103N, K122E, D123N, C162S, D177E, 1178L, M184V, T200A, Q207E, T215Y, P243S, V245Q, A272P and R277K in reverse transcriptase. Among these mutations, K103N correlates with resistance to a number of NNRTIs, including NVP. This patient sample was tested for resistance to an NNRTI using the methods described above.\n(§1) To further analyze the effects of N348I, T369I, and E399D on NNRTI resistance, an additional series of site directed mutants was constructed in non-wild-type backgrounds. In particular, site-directed mutants comprising the N348I, T369I, or E399D mutation were constructed in POL-containing test vectors obtained from three different patient samples. Results from these experiments are presented as FIG. 11.\nas §1, with “on AZT” for “on NNRTI”, “the N3481,” for “the N348I,”, “from two” for “from three”, “samples.” for “samples. Results from these experiments are presented as FIG. 11.”"}, "[2]": {"test_system": "HIV-1 (PRRT-RH segment of patient sample 62)", "assay": "phenotypic drug resistance test, PRRT-RH amplicon of sample 62", "format": "cell-based", "from_the_text": "Patient-derived segment(s) corresponding to the entire pol gene, encoding HIV protease, reverse transcriptase (including RNAse H), and integrase (hereinafter “POL”), the portion of pol encoding amino acids 1-305 of reverse transcriptase (hereinafter “PR-RT”), the portion of pol encoding amino acids 319-440 of reverse transcriptase (including RNAse H), and integrase (hereinafter “RHIN”), were amplified by the reverse transcription-polymerase chain reaction method (RT-PCR) using viral RNA isolated from viral particles present in the plasma or serum of HIV-infected individuals as described below. The portion of pol encoding protease, amino acids 1-531 of reverse transcriptase (including RNase H) (hereinafter “PRRT-RH”), or the portion of pol encoding protease, reverse transcriptase (including RNAse H) and integrase (hereinafter “PRRT-RHIN”), were assembled from amplicons described above by standard recombinant DNA techniques involving a KpnI restriction site at amino acid 400 or a Pin A1 site at amino acid 315.\nDrug resistance tests performed with test vectors were carried out using packaging host and target host cells consisting of the human embryonic kidney cell line 293.\nResistance tests were carried out with the RTV libraries by using viral particles comprising the RTV libraries to infect a host cell in which the expression of the indicator gene is measured. The amount of indicator gene (luciferase) activity detected in infected cells is used as a direct measure of “infectivity,” i.e., the ability of the virus to complete a single round of replication. Thus, drug resistance or sensitivity can be determined by plotting the amount of luciferase activity produced by patient derived viruses in the presence of varying concentrations of the antiviral drug. By identifying the concentration of drug at which luciferase activity is half-maximum, the IC50 of the virus from which patient-derived segment(s) were obtained for the antiretroviral agent can be determined. […]"}, "[3]": {"conditions": "E399D mutation, patient 50 background"}, "[4]": {"conditions": "E399D mutation, patient 58 or patient 62 background"}, "[5]": {"conditions": "N348I and T369I mutations, POL test vectors of patients 50, 58, 62"}}}
{"smiles": "CC(C)Nc1cccnc1N1CCN(C(=O)c2cc3cc(NS(C)(=O)=O)ccc3[nH]2)CC1", "note": "[DLV, delavirdine]", "values": [{"measurement": "change in resistance on addition of mutation", "setting": "[1]; [3]", "result": "increased"}, {"measurement": "change in resistance on addition of mutation", "setting": "[1]; [4]", "result": "not"}, {"measurement": "change in resistance on addition of mutation", "setting": "[1]; [5]", "result": "increased resistance"}, {"measurement": "Fold Change in IC50, PRRT-RH amplicon", "setting": "[2]", "result": 250.00, "unit": "fold"}]}
{"smiles": "O=C1Nc2ccc(Cl)cc2[C@@](C#CC2CC2)(C(F)(F)F)O1", "note": "[EFV, efavirenz]", "values": [{"measurement": "change in resistance on addition of mutation", "setting": "[1]; [3]", "result": "increased"}, {"measurement": "change in resistance on addition of mutation", "setting": "[1]; [4]", "result": "not"}, {"measurement": "change in resistance on addition of mutation", "setting": "[1]; [5]", "result": "increased resistance"}, {"measurement": "Fold Change in IC50, PRRT-RH amplicon", "setting": "[2]", "result": 276.90, "unit": "fold"}]}
{"smiles": "Cc1ccnc2c1NC(=O)c1cccnc1N2C1CC1", "note": "[NVP, nevirapine]", "values": [{"measurement": "change in resistance on addition of mutation", "setting": "[1]; [3]", "result": "increased"}, {"measurement": "change in resistance on addition of mutation", "setting": "[1]; [4]", "result": "not"}, {"measurement": "change in resistance on addition of mutation", "setting": "[1]; [5]", "result": "increased resistance"}, {"measurement": "resistance of test vector", "setting": "[1]; T369I introduced into PR-RT segment of patient sample 62 (contains K103N)", "result": "enhanced resistance"}, {"measurement": "Fold Change in IC50, PRRT-RH amplicon", "setting": "[2]", "result": 400.00, "unit": "fold"}]}
